In PubChem BioAssay AID179 (DTP/NCI, 2004) one finds outcome, EC50 and IC50 data, which are given here for 67 compounds.

Each structure is given as a SMILES string. Activity calls are given as the source filed them.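 Rule for the calls: active = compounds giving half or more protection of infected cells from virus-caused growth loss, again on retest; inactive = the rest.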 Where a SMILES comes first, the peptide text is derived from it. The star is where a group is joined. Cbz = O=C(OCc1ccccc1)*

For this experiment, the system named is CEM cells HIV-1 protection, formazan growth assay. As to the kind of experiment: NCI AIDS Antiviral Assay. Particulars: for IC50: measured here: growth of uninfected CEM cells. The gist of the method:
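CEM (human) cells, HIV-1 infected vs uninfected, 5-point dosing, formazan growth read-out. Retest threshold 50% protection.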

On to `CSc1c(S(C)=O)[nH]c2cc(Br)cc(Br)c12` (stereo not drawn), for which the outcome was inactive.

In general, EC50 refers to the midpoint of the concentration-response curve. For orientation: IC50 means the concentration at which inhibition is half-maximal. A low value points to inhibition by little substance. For `CCCCCCCCSCC1OC2OC3C(CSCCCCCCCC)OC(OC4C(CSCCCCCCCC)OC(OC5C(CSCCCCCCCC)OC(OC6C(CSCCCCCCCC)OC(OC7C(CSCCCCCCCC)OC(OC8C(CSCCCCCCCC)OC(OC1C(OS(=O)(=O)O)C2OS(=O)(=O)O)C(OS(=O)(=O)O)C8OS(=O)(=O)O)C(OS(=O)(=O)O)C7OS(=O)(=O)O)C(OS(=O)(=O)O)C6OS(=O)(=O)O)C(OS(=O)(=O)O)C5OS(=O)(=O)O)C(OS(=O)(=O)O)C4OS(=O)(=O)O)C(OS(=O)(=O)O)C3OS(=O)(=O)O` (stereo not drawn), the EC50 was 2.57 µM and the IC50 was determined as 50.1 µM.

Take `S=c1[nH]nc(Cn2c3ccc(Br)cc3c3nc4ccccc4nc32)n1C1CCCCC1`: the EC50 is above 200 µM and the IC50 came to 51.3 µM.

As to `OCCN1OCCCC1c1ccccc1` (stereo not drawn), the EC50 is above 1200 µM and the concentration for half-maximal inhibition (IC50) is above 1200 µM.

In the case of `ON=C(CC(O)(C(F)(F)Cl)C(F)(F)Cl)CC(O)(C(F)(F)Cl)C(F)(F)Cl`, the EC50 is above 200 µM and the IC50 is 8.71 µM.

On to `CCN(CC)C1=Nc2ccccc2-n2c(C)cnc2C1`, for which the EC50 is above 200 µM and the half-maximal inhibitory concentration (IC50) is above 200 µM.

As to `O=C(c1cc(Cl)ccc1Cl)N1CCN(c2cccc(Cl)c2)CC1`, the EC50 is above 200 µM and the IC50 was 15.5 µM.

On to `Cc1cc(C23OC4COC(C)(C)OC4C2OC(C)(C)O3)ncn1` (stereo not drawn), for which the EC50 was above 200 µM and the IC50 is above 200 µM.

On to `O=[N+]([O-])/C(C(Cl)=C(Cl)Cl)=C1\NCCO1`, for which the EC50 is above 200 µM and the IC50 came to 115 µM.

On to `CC[n+]1[b-](C(C)(C)C)n(/N=C/C(C)(C)C)[b-](C(C)(C)C)[n+]1CC`, for which the EC50 was above 200 µM and the IC50 was above 200 µM.

Turning to `CCN(CC)CC(=O)N1CCc2c([nH]c3ccccc23)C1c1cccnc1` (stereo not drawn), the EC50 was above 138 µM and the IC50 was above 138 µM.

With `Nc1c(C(=O)Nc2ccccc2)[n+]([O-])c2ccccc2[n+]1[O-]`, the result was inactive.

For the compound `Cc1cc2c(cc1C)[n+](=O)c(C(=O)C/C(=N/NC(=O)c1ccccc1O)C(=O)Nc1ccccc1C(C)C)c(C)n2[O-]`, the EC50 was above 229 µM and the 50% inhibitory concentration (IC50) amounted to 75.9 µM.

For `CCn1cc(C(=O)O)c(=O)c2cccc(OC)c21`, the outcome was inactive.

Turning to `O=C1/C(=C/c2cccc(O)c2)COc2ccccc21`, the EC50 is above 123 µM and the IC50 was 4.27 µM.

As to `CC1=NN(C(=O)c2ccccc2O)C(=O)/C1=C/c1ccc(O)cc1`, the EC50 was above 30.9 µM and the IC50 came to 0.0589 µM.

On to `C/C(=N\N(C)C)C(CN(C)C)C(c1ccccc1)c1c(O)c2ccccc2oc1=O` (stereo not drawn), for which the EC50 was above 100 µM and the IC50 is 91.2 µM.

As to `[C-]#[O+].[C-]#[O+].[C-]#[O+].[Re].c1ccc2c(c1)[cH-]c1ccccc12`, the EC50 is above 1.66 µM and the IC50 is above 1.66 µM.

With `O=C1C2=Cc3ccccc3OC2(O)Oc2cc(O)ccc21` (stereo not drawn), the EC50 is above 200 µM and the IC50 came out at 49 µM.

Regarding `Cn1cc2ccccc2c1-c1nc(F)nc(Oc2ccc3c(c2)CC[C@@H]2C3CC[C@]3(C)C(O)CCC23)n1` (stereo partly drawn), the EC50 is above 5.5 µM and the IC50 is above 5.5 µM.

Regarding `CC(C)CC(NC(=O)C(Cc1ccc(O)cc1)NC(=O)C(CO)NC(=O)C(CCC(=O)O)NC(=O)C1CCCN1C(=O)C(CC(C)C)NC(=O)C(C)NC(=O)CNC(=O)C(N)CCC(=O)O)C(=O)NCC(=O)O` (stereo not drawn) (H-EGALPESYLG-OH; configuration not given here), the result was inactive.

With `COC(=O)CNC(=O)C(NC(=O)C1CCCN1C(=O)OCc1ccccc1)C(C)C` (stereo not drawn) (Cbz-Pro-Val-Gly-OMe; configuration not given here), the EC50 is above 224 µM and the concentration for half-maximal inhibition (IC50) turned out to be 37.2 µM.

As to `O=c1oc2ccccc2c(O)c1C(c1ccc(/C=C/c2ccccc2)cc1)c1c(O)c2ccccc2oc1=O`, the EC50 was above 200 µM and the IC50 is 15.1 µM.

In the case of `COc1cccc(CC2Cc3ccccc3CC(=O)N2)c1` (stereo not drawn), the EC50 is above 200 µM and the half-maximal inhibitory concentration (IC50) stood at 38 µM.

Turning to `CCNc1cc2c(cc1O)CC[C@@H]1[C@@H]2CC[C@]2(C)[C@@H](O)CC[C@@H]12`, the EC50 is above 200 µM and the half-inhibitory concentration (IC50) came to 3.89 µM.

Consider `CC1=CC(=O)N2[C@H](OC[C@@H]2C(C)C)O1`, for which the EC50 was above 1260 µM and the IC50 was above 1260 µM.

In the case of `COc1cc2ccc1-c1cc(ccc1O)CC1c3cc4c(cc3CCN1C)Oc1c(OC)cc3c(c1O4)C(C2)N(C)CC3` (stereo not drawn), the result was inactive.

As for `C[C@H]1ON2CCC[C@@H]2[C@@H]1C(=O)N1C2CC3CCC2(CS1(=O)=O)C3(C)C` (stereo partly drawn), the EC50 is above 200 µM and the IC50 was above 200 µM.

As to `Cc1cc(C)c(/C=N/NS(=O)(=O)c2ccccc2)c(C)c1`, the outcome was inactive.

Turning to `CC(=O)C1C(=O)C(=O)N(c2ccc([N+](=O)[O-])cc2Cl)C1=O` (stereo not drawn), the EC50 is above 200 µM and the IC50 came to 95.5 µM.

With `Cc1ccccc1Nc1nc2ccccc2nc1NS(=O)(=O)c1ccccc1`, the EC50 was above 200 µM and the concentration for half-maximal inhibition (IC50) was above 200 µM.

Consider `O=C(O)c1ccc(CS(=O)(=O)c2ccccc2)cc1`, for which the EC50 was above 912 µM and the IC50 is above 912 µM.

For the compound `CO/S(=N/S(=O)(=O)c1ccccc1)c1ccccc1[N+](=O)[O-]` (stereo not drawn), the EC50 was above 380 µM and the IC50 worked out at 102 µM.

As for `NC(N)=NNC(=O)CCCCCCCC(=O)NN=C(N)N`, the EC50 is 537 µM and the IC50 stood at 676 µM.

Regarding `CCOC(=O)CCN1C(=O)c2c(NC(=O)C(=O)O)cccc2S1(=O)=O`, the EC50 is above 200 µM and the concentration for half-maximal inhibition (IC50) was above 200 µM.

`O=S(=O)(O)C(F)(F)C(F)(F)C(F)(F)C(F)(F)C(F)(F)C(F)(F)C(F)(F)C(F)(F)F`: the EC50 is above 200 µM and the IC50 is above 200 µM.

As to `COC(=O)c1c(C)cccc1/C=C1\Cc2cc(C)cc(C)c2C1=O`, the EC50 is above 200 µM and the IC50 was determined as 151 µM.

On to `C[C@]12CCC3[C@@H](C[C@H]4OC(=O)[C@@]35CCC(=O)C=C45)C1CCC2=O` (stereo partly drawn), for which the outcome was inactive.

Turning to `O=C(Nc1cccc(C2=NCCN2)c1)Nc1cccc(C2=NCCN2)c1`, the EC50 was above 200 µM and the IC50 turned out to be 32.4 µM.

`O=c1[nH]c(=S)[nH]c2c1CN(CCCN1CCOCC1)CN2`: the EC50 is above 794 µM and the concentration for half-maximal inhibition (IC50) was 49 µM.

On to `O=C1CCc2ccc3c(c21)CC1(Cc2ccccc2C1)C3`, for which the EC50 was above 200 µM and the IC50 is above 200 µM.

In the case of `C[C@H]1CCC2C(OC(=O)[C@@H]2CN(C)C)[C@]2(C)C(=O)C=CC12O` (stereo partly drawn), the outcome was inactive.

`c1ccc(N2N=NC3C4CC(C32)C2C4N=NN2c2ccccc2)cc1` (stereo not drawn): the EC50 was above 200 µM and the IC50 is above 200 µM.

`CCCC(CC)C(C(=O)OCC)C1=NC(C)(C)CC(C)O1` (stereo not drawn): the EC50 was above 200 µM and the IC50 is above 200 µM.

Turning to `COc1cc(-c2cc(=O)c3c(O)cc(O)cc3o2)cc(OC)c1OC`, the EC50 is above 64.6 µM and the IC50 was above 64.6 µM.

`O=C1CC(C(O)CO)CC(=O)N1` (stereo not drawn): the EC50 was above 200 µM and the half-inhibitory concentration (IC50) was above 200 µM.

For `COc1ccc(-c2cc(O)c3nc4ccccc4n3c2)cc1`, the EC50 is above 200 µM and the IC50 was above 200 µM.

On to `COc1ccccc1/C=C/C(=O)c1ccccc1`, for which the EC50 was above 57.5 µM and the IC50 is 11.2 µM.

`CCC(C)C1NC(=O)C(N(C)C)Cc2cc(ccc2OC)/C=C/NC(=O)C(Cc2ccccc2)NC1=O` (stereo not drawn): the EC50 was above 35.5 µM and the IC50 was above 35.5 µM.

On to `Cc1ccc(-c2c(N)nc(NC#N)nc2CCC(=O)Nc2ccccc2[N+](=O)[O-])cc1`, for which the result was inactive.

With `CN(C)c1nc(NN)c2c(-c3ccccc3)c(-c3ccccc3)oc2n1`, the EC50 was above 100 µM and the IC50 was above 100 µM.

For `CC(=O)N(C(C)=O)n1c(Cc2ccc(C)cc2)nn(C(C)=O)c1=O`, the EC50 was above 200 µM and the IC50 is above 200 µM.

Take `CN1CCN(CCCCN2c3ccccc3Sc3cc(N=[N+]=[N-])ccc32)CC1`: the EC50 was above 200 µM and the half-inhibitory concentration (IC50) came out at 3.63 µM.

For the compound `C=C1C(=O)OC(CCCCC)C1C(=O)O` (stereo not drawn), the outcome was inactive.

`C1CN2CCOB(O1)OCC2`: the EC50 is above 200 µM and the IC50 was above 200 µM.

Turning to `CC(C)(C)[Si](C)(C)OCC1OC(n2ccc(=O)[nH]c2=O)C(O[Si](C)(C)C(C)(C)C)[C@]12N[C@H](C(N)=O)CS2` (stereo partly drawn), the EC50 is above 200 µM and the IC50 was 5.25 µM.

As for `CNC(=O)C(C)NC(=O)C(Cc1ccccc1)NC(=O)OC(C)(C)C` (stereo not drawn), the EC50 was above 200 µM and the IC50 was above 200 µM.

Consider `CC1=CC(=O)c2cccc(NC3=NCCO3)c21`, for which the EC50 was above 200 µM and the IC50 was found to be 72.4 µM.

For the compound `CC/C(=N/O)c1ccc(Br)s1`, the outcome was inactive.

With `CCCCCCCCCCCO/N=C\c1c2c(O)c3c(O)c(C)c4c(c3c1O)C(=O)C(C)(O/C=C\C(OC)C(C)C(OC(C)=O)C(C)C(O)C(C)C(O)C(C)/C=C\C=C(\C)C(=O)N2)O4` (stereo not drawn), the EC50 was above 200 µM and the IC50 came to 3.02 µM.

`CN(C)c1ccc(/C=N/n2c(-c3ccccc3)nc3ccccc3c2=O)cc1`: the EC50 is above 200 µM and the half-inhibitory concentration (IC50) was determined as 33.9 µM.

On to `C[C@@H](CN1CC(=O)NC(=O)C1)N1CC(=O)NC(=O)C1`, for which the EC50 is above 933 µM and the IC50 is 91.2 µM.

Turning to `CCCCCCCCSC(=O)n1cc(F)c(=O)[nH]c1=O`, the EC50 is above 61.7 µM and the IC50 was above 61.7 µM.

For `CCOC(=O)CCC(NC(=O)c1ccc(OCc2ccc3nc(-c4ccccc4)c(Cl)nc3c2)cc1)C(=O)OCC` (stereo not drawn), the EC50 is above 200 µM and the IC50 stood at 43.7 µM.

In the case of `CC1(C)CC(=O)C(/C=N/C(=S)Nc2ccc(S(N)(=O)=O)cc2)=C(O)C1`, the EC50 was above 200 µM and the IC50 was above 200 µM.

Take `COC(=O)C12C=CC(C(=O)OC)(CC1)n1c(=O)n(-c3ccccc3)c(=O)n12`: the EC50 is above 200 µM and the IC50 is above 200 µM.

Regarding `O=C1CC(NC(=O)C(F)(F)F)c2c(Br)sc(N3CCC(c4ccccc4)CC3)c21` (stereo not drawn), the EC50 is above 200 µM and the IC50 amounted to 145 µM.
